Source: ChEMBL document CHEMBL1141632, “Synthesis and evaluation of novel 3,4,6-substituted 2-quinolones as FMS kinase inhibitors” (Bioorg Med Chem Lett, 2008)
pIC50: −log10 of the molar value. Each block holds one compound with its values, some of them ahead of it. Calls of active or inactive are those of the source. The rule behind the calls is not given here.

Key:
[1] = biological target: T1, Macrophage colony-stimulating factor 1 receptor (Homo sapiens, UniProt P07333); assay: Inhibition of human cytoplasmic macrophage colony-stimulating factor 1 receptor at 5 uM by fluorescence polarization
[2] = biological target: T1, Macrophage colony-stimulating factor 1 receptor; assay: Inhibition of human cytoplasmic macrophage colony-stimulating factor 1 receptor by fluorescence polarization
[3] = Inhibition of CSF1-induced human BMDM cell proliferation; type: functional, cell-based
[4] = biological target: T2, Receptor-type tyrosine-protein kinase FLT3 (Homo sapiens, UniProt P36888); assay: Inhibition of FLT3
T2 sequence (P36888 whole entry): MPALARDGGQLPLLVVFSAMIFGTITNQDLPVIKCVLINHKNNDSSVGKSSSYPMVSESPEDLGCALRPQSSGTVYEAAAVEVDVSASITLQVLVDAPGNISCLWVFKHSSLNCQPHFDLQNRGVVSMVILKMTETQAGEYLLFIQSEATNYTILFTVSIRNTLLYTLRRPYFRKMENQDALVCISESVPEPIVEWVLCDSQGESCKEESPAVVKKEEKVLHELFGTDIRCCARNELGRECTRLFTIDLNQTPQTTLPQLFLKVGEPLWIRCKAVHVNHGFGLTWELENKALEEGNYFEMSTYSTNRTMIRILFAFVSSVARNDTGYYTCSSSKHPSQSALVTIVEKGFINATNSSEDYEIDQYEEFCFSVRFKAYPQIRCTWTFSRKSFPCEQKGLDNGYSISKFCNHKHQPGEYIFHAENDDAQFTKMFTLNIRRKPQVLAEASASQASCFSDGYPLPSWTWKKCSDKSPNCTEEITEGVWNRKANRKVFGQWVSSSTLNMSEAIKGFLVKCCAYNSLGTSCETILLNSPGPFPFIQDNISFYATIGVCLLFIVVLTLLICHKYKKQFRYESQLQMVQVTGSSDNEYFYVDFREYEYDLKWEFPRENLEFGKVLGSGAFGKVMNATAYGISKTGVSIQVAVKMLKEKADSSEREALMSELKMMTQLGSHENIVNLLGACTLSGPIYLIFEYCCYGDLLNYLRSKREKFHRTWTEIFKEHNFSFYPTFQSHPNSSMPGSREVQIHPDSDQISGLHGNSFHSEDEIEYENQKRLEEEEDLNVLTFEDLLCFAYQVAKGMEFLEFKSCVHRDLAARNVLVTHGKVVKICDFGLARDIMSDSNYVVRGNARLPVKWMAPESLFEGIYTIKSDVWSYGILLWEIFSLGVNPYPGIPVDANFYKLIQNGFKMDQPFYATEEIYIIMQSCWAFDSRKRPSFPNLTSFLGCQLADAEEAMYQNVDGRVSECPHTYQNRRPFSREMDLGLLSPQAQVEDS

[5] = biological target: Mast/stem cell growth factor receptor Kit (Homo sapiens, UniProt P10721); assay: Inhibition of KIT
[6] = biological target: Platelet-derived growth factor receptor beta (Homo sapiens, UniProt P09619); assay: Inhibition of PDGFRbeta
[7] = Half life in rat at 2 mg/kg, iv and 10 mg/kg, po; type: ADME, organism-based; details: in vivo
[8] = Cmax in rat at 2 mg/kg, iv and 10 mg/kg, po; type: ADME, organism-based; details: in vivo
[9] = Volume of distribution in rat at 2 mg/kg, iv and 10 mg/kg, po; type: ADME, organism-based; details: in vivo
[10] = Clearance in rat at 2 mg/kg, iv and 10 mg/kg, po; type: ADME, organism-based; details: in vivo
[11] = Oral bioavailability in rat at 10 mg/kg; type: ADME, organism-based; details: in vivo
Mus musculus [12] = assay: Inhibition of FMS in B6C3F1 mouse assessed as reduction in CSF1-induced C-fos levels at 5 mg/kg, po; type: functional, organism-based; set-up: dose 5 mg/kg
Mus musculus [13] = assay: Inhibition of FMS in B6C3F1 mouse assessed as reduction in CSF1-induced C-fos levels at 20 mg/kg, po; type: functional, organism-based; set-up: dose 20 mg/kg
Mus musculus [14] = assay: Inhibition of FMS in B6C3F1 mouse assessed as reduction in CSF1-induced C-fos levels at 50 mg/kg, po; type: functional, organism-based; set-up: dose 50 mg/kg

T1 sequence (P07333 whole entry): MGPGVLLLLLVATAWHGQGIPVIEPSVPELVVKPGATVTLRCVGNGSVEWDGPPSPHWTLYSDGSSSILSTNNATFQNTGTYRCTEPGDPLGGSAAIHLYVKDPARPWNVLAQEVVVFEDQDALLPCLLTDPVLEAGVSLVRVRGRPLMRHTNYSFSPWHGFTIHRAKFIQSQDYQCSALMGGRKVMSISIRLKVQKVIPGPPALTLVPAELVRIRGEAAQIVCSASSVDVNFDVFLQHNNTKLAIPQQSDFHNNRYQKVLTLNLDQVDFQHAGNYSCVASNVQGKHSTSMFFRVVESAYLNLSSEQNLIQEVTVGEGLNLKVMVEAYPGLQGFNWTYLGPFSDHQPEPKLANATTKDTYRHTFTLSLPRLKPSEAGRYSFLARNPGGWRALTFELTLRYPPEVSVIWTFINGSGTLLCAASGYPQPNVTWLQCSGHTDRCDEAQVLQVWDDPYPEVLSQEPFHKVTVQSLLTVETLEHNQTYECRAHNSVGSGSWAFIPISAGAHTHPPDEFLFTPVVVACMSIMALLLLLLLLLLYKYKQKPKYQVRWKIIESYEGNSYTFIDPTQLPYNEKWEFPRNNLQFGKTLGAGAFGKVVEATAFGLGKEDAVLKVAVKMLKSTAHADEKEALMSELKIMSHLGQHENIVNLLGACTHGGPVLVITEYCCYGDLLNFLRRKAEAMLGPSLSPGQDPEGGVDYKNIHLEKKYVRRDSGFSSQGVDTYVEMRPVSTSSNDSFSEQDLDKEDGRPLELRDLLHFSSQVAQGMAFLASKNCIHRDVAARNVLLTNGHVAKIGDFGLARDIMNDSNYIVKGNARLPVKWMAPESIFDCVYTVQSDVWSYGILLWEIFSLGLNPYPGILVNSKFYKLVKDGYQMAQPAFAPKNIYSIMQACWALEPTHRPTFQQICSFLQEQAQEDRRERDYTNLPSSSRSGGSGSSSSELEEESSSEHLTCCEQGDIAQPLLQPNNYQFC
Mast/stem cell growth factor receptor Kit, sequence (P10721 whole entry): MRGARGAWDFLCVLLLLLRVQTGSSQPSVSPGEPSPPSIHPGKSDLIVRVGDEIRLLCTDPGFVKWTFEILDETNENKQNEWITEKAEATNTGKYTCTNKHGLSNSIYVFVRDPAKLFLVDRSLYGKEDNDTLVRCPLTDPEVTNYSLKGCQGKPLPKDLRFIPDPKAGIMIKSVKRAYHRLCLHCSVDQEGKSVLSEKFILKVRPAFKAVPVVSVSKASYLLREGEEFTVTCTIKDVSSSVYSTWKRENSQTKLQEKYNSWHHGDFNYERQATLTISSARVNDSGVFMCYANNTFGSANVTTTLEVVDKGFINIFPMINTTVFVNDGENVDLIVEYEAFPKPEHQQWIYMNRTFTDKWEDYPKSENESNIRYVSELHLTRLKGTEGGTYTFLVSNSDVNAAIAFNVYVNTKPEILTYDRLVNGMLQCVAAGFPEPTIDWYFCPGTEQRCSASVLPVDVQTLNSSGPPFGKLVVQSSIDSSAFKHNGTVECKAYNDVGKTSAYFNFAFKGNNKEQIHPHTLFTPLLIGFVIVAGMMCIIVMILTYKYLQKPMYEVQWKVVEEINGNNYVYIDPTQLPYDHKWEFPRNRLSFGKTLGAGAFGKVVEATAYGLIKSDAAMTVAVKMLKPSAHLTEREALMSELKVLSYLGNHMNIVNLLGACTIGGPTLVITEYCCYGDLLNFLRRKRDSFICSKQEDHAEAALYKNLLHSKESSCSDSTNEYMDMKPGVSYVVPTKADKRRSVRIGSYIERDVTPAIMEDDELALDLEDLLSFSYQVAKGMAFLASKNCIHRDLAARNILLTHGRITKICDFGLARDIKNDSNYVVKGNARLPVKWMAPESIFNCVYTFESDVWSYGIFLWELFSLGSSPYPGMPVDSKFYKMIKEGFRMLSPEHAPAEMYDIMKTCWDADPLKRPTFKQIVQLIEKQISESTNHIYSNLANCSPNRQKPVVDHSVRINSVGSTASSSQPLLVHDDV
Platelet-derived growth factor receptor beta, sequence (P09619 whole entry): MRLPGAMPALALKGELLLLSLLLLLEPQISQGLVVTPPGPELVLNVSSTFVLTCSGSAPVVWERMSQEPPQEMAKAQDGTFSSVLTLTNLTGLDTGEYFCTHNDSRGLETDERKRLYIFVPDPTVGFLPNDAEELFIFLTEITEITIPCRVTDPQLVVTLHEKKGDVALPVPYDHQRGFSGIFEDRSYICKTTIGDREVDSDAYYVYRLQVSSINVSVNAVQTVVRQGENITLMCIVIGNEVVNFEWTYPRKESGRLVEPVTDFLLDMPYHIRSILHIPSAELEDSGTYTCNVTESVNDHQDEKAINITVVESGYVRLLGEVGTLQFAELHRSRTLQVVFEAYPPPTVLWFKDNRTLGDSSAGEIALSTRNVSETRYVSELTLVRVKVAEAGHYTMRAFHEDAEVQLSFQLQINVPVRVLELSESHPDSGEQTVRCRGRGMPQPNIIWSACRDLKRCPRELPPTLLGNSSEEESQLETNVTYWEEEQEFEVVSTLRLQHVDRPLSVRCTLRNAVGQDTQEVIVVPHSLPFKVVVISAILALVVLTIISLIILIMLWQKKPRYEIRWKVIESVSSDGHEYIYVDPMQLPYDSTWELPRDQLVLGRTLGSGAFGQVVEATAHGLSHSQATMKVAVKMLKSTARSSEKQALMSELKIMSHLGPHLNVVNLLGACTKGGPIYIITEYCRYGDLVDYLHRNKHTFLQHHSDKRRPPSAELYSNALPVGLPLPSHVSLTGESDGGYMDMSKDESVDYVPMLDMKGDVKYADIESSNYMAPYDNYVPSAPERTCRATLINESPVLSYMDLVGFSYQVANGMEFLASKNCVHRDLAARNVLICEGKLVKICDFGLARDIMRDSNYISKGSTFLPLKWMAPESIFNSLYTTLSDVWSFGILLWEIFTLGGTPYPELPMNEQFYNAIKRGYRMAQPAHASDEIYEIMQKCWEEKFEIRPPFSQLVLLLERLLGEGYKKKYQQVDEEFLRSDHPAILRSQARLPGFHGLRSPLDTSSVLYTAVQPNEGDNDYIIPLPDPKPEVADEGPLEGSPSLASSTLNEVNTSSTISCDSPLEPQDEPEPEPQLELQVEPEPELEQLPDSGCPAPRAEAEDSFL

pIC50 [2]: < 5.30
SMILES: Cc1cc(-c2c(-c3ccccc3)c3ccccc3[nH]c2=O)on1

pIC50 [2]: < 4.70
SMILES: Cc1cc(-c2c(-c3ccccc3)c3ncccc3[nH]c2=O)on1

The next lines start with the compound.

SMILES: Cc1cc(-c2c(-c3ccccc3)c3cnccc3[nH]c2=O)on1
inhibition [1]: 8%

SMILES: Cc1cc(-c2c(-c3ccccc3)c3cc(N)ccc3[nH]c2=O)on1
pIC50 [2]: < 5.30

SMILES: CCc1ccc(-c2c(-c3cnc(C)[nH]3)c(=O)[nH]c3ccc(Cl)cc23)cc1
pIC50 [3]: 7.55
pIC50 [4]: 7.47
pIC50 [5]: 7.17
pIC50 [6]: < 6.00

SMILES: CCc1ccc(-c2c(-c3c[nH]c(C)n3)c(=O)[nH]c3ccc(C#N)cc23)cc1
pIC50 [4]: 7.33
pIC50 [5]: 6.77
pIC50 [6]: < 6.00
half-life [7]: 1.07 h
Cmax [8]: 317 ng/mL
Vd [9]: 8.6 L/kg
clearance [10]: 93 mL/min/kg
bioavailability [11]: 56%

SMILES: CCc1ccc(-c2c(-c3cnc(C)[nH]3)c(=O)[nH]c3ccc(C#N)cc23)cc1
Activity (Mus musculus [12]): Active
Activity (Mus musculus [13]): Active
Activity (Mus musculus [14]): Active
pIC50 [3]: 8.30
